Assay results: EPA's ToxRefDB 2

Key:
mouse [1] = details: Prenatal developmental toxicity study; cd1; Oral; Gavage/Intubation; dose end: 15 GD; group: maternal; systemic / in life observation / clinical signs / ataxia + systemic / in life observation / mortality / mortality
mouse [2] = details: Subchronic oral toxicity in rodents, b6c3f1, Gavage/Intubation, dose end: 13 week, group: systemic
mouse [3] = details: Carcinogenicity, b6c3f1, Oral, Gavage/Intubation, dose end: 103 week, group: systemic
rat [4] = details: Sub-acute repeat dose toxicity, fischer, Oral, Gavage/Intubation, dose end: 16 day, group: systemic
mouse [5] = details: Sub-acute repeat dose toxicity, b6c3f1, Oral, Gavage/Intubation, dose end: 16 day, group: systemic
rat [6] = details: Carcinogenicity; fischer; Oral; Gavage/Intubation; dose end: 103 week; group: systemic; systemic / pathology microscopic / spleen / fibrosis + systemic / pathology microscopic / stomach / dysplasia + systemic / pathology …
rat [7] = details: Subchronic oral toxicity in rodents, fischer, Gavage/Intubation, dose end: 13 week, group: systemic
rat [8] = details: Developmental neurotoxicity study; other; Oral; Gavage/Intubation; dose end: 112 PND; group: cannot be grouped; systemic / in life observation / body weight / offspring (pup) weight gain
rat [9] = details: Prenatal developmental toxicity study, sprague dawley, Oral, Gavage/Intubation, dose end: 17 GD
rat [10] = details: Chronic toxicity, sprague dawley, Oral, Gavage/Intubation, dose end: 6 month, group: systemic
rat [11] = details: Sub-acute repeat dose toxicity, sprague dawley, Oral, Gavage/Intubation, dose end: 28 day, group: systemic
dog [12] = details: Sub-acute repeat dose toxicity, beagle, Oral, Gavage/Intubation, dose end: 4 week, group: systemic
rabbit [13] = details: Prenatal developmental toxicity study, new zealand white, Oral, Gavage/Intubation, dose end: 19 GD, group: maternal
rat [14] = details: Fertility (Segment I), sprague dawley, Oral, Gavage/Intubation, dose end: 7 GD
rabbit [15] = details: Prenatal developmental toxicity study; new zealand white; Oral; Gavage/Intubation; dose end: 19 GD; group: maternal; reproductive / offspring survival early / litter viability other / total litter loss + systemic / in life observation / body weight / body …
dog [16] = details: Chronic toxicity; beagle; Oral; Feed; dose end: 12 month; group: cholinesterase; cholinesterase / cholinesterase / cholinesterase / brain cholinesterase (che) + cholinesterase / cholinesterase / cholinesterase / …
dog [17] = details: Chronic toxicity; beagle; Oral; Feed; dose end: 104 week; group: cholinesterase; cholinesterase / cholinesterase / cholinesterase / erythrocyte cholinesterase (che) + cholinesterase / cholinesterase / cholinesterase / …
rat [18] = details: Combined chronic toxicity/carcinogenicity, fischer, Oral, Feed, dose end: 105 week
rat [19] = details: Prenatal developmental toxicity study, sprague dawley, Oral, Gavage/Intubation, dose end: 15 GD
dog [20] = details: Chronic toxicity; beagle; Oral; Feed; dose end: 107 week; group: systemic; systemic / pathology gross / eye / [other] + systemic / pathology gross / eye / discolored + systemic / pathology microscopic / eye / [other…
mouse [21] = details: Carcinogenicity, cd1, Oral, Feed, dose end: 108 week
mouse [22] = details: Carcinogenicity; b6c3f1; Oral; Water; dose end: 90 week; group: systemic; systemic / pathology microscopic / liver / adenoma/carcinoma combined + systemic / pathology microscopic / liver / carcinoma + systemic / …
rat [23] = details: Carcinogenicity, other, Oral, Water, dose end: 110 week, group: systemic
[24] = systemic / in life observation / body weight / body weight + systemic / pathology gross / sperm measure / sperm count + systemic / pathology…
[25] = systemic / pathology gross / sperm measure / sperm count + systemic / pathology gross / sperm measure / sperm motility + systemic / …
[26] = systemic / in life observation / body weight / body weight + systemic / pathology microscopic / harderian gland / adenoma + systemic / …
[27] = systemic / in life observation / body weight / body weight
[28] = systemic / in life observation / body weight / body weight + systemic / in life observation / mortality / mortality + systemic / pathology …
[29] = systemic / in life observation / body weight / body weight + systemic / in life observation / clinical signs / defecation (diarrhea) + …
[30] = systemic / pathology gross / sperm measure / sperm count + systemic / pathology gross / sperm measure / sperm motility
[31] = group: developmental, systemic / in life observation / body weight / fetal weight
[32] = group: maternal, systemic / in life observation / body weight / body weight gain + systemic / in life observation / clinical signs / coma + systemic / in …
[33] = systemic / clinical chemistry / cholesterol / cholesterol + systemic / clinical chemistry / phosphorus / phosphate + systemic / clinical …
[34] = systemic / in life observation / clinical signs / hunched posture + systemic / pathology microscopic / liver / hypertrophy + systemic / in …
[35] = systemic / hematology / reticulocyte / reticulocyte + systemic / in life observation / clinical signs / hunched posture + systemic / in life…
[36] = systemic / in life observation / clinical signs / hunched posture + systemic / in life observation / clinical signs / piloerection
[37] = systemic / in life observation / clinical signs / dialated pupils + systemic / in life observation / clinical signs / defecation (diarrhea)
[38] = systemic / in life observation / clinical signs / dialated pupils + systemic / in life observation / clinical signs / defecation (diarrhea…
[39] = systemic / in life observation / body weight / body weight gain + systemic / in life observation / food consumption / food consumption + …
[40] = group: maternal, reproductive / reproductive performance / estrous cycle / abnormal
[41] = group: parental, systemic / in life observation / body weight / body weight gain + systemic / in life observation / clinical signs / hunched posture + …
[42] = group: cholinesterase, cholinesterase / cholinesterase / cholinesterase / brain cholinesterase (che) + cholinesterase / cholinesterase / cholinesterase / …
[43] = group: systemic, systemic / pathology gross / harderian gland / degeneration + systemic / in life observation / body weight / body weight + systemic / in …
[44] = group: cholinesterase, cholinesterase / cholinesterase / cholinesterase / erythrocyte cholinesterase (che) + cholinesterase / cholinesterase / cholinesterase / …
[45] = group: developmental, developmental / developmental malformation / bone / incomplete ossification
[46] = group: systemic, systemic / organ weight / kidney / relative to body weight + systemic / pathology microscopic / heart / lymphoma malignant
[47] = group: systemic, systemic / organ weight / kidney / relative to body weight + systemic / pathology microscopic / heart / lymphoma malignant + systemic / …
[48] = systemic / pathology microscopic / kidney / degeneration + systemic / pathology microscopic / stomach / ulcer
[49] = systemic / pathology microscopic / kidney / degeneration + systemic / pathology microscopic / stomach / ulcer + systemic / pathology …

In the case of `OCC1CO1` (configuration not stated) [Glycidol], the LEL (mouse [1]) is reported as 200 mg/kg/day, the LOAEL (mouse [1]) is reported as > 200 mg/kg/day and the NEL (mouse [1]) is reported as 150 mg/kg/day. For the same compound, the NOAEL (mouse [1]) was ≥ 200 mg/kg/day, the LEL (mouse [2]; [24]) was 19 mg/kg/day and the NEL (mouse [2]; [24]) was < 19 mg/kg/day. For the same compound, the LOAEL (mouse [2]; [25]) was 75 mg/kg/day, the NOAEL (mouse [2]; [25]) was 38 mg/kg/day and the LEL (mouse [3]; [26]) was 25 mg/kg/day. The NEL (mouse [3]; [26]) was < 25 mg/kg/day, the NOAEL (mouse [3]; [26]) was 25 mg/kg/day and the LOAEL (mouse [3]; systemic / in life observation / body weight / body weight + systemic / pathology microscopic / stomach / hyperplasia) was 50 mg/kg/day. The LEL (rat [4]; [27]) was 150 mg/kg/day, the LOAEL (rat [4]; [27]) was 150 mg/kg/day and the NEL (rat [4]; [28]) was 75 mg/kg/day. For the same compound, the NOAEL (rat [4]; [28]) was 75 mg/kg/day, the LEL (mouse [5]; systemic / in life observation / body weight / body weight + systemic / in life observation / clinical signs / defecation (diarrhea)) was 150 mg/kg/day and the LOAEL (mouse [5]; [29]) was > 600 mg/kg/day. For the same compound, the NEL (mouse [5]; [29]) was 75 mg/kg/day, the NOAEL (mouse [5]; [29]) was ≥ 600 mg/kg/day and the LEL (rat [6]) was 37.5 mg/kg/day. For the same compound, the LOAEL (rat [6]) was 37.5 mg/kg/day, the NEL (rat [6]) was < 37.5 mg/kg/day and the NOAEL (rat [6]) was < 37.5 mg/kg/day. For the same compound, the NOAEL (rat [7]; systemic / in life observation / body weight / body weight + systemic / pathology microscopic / brain / necrosis + systemic / in life …) was 100 mg/kg/day, the LOAEL (rat [7]; systemic / in life observation / body weight / body weight + systemic / pathology microscopic / brain / necrosis + systemic / pathology …) was 200 mg/kg/day and the LEL (rat [7]; [30]) was 25 mg/kg/day. The NEL (rat [7]; [30]) was < 25 mg/kg/day.
For `CN(C)CCCN1c2ccccc2Sc2ccc(Cl)cc21` [Chlorpromazine], the LEL (rat [8]) was 3 mg/kg/day, the LOAEL (rat [8]) was > 9 mg/kg/day and the NEL (rat [8]) was 1 mg/kg/day. For the same compound, the NOAEL (rat [8]) was ≥ 9 mg/kg/day.
`O=C(N[C@@H](c1ccccc1)[C@@H]1CCCCN1)c1cccc(C(F)(F)F)c1Cl` showed an LEL (rat [9]; [31]) of 25 mg/kg/day, an LOAEL (rat [9]; [31]) of 25 mg/kg/day and an NEL (rat [9]; [31]) of 5 mg/kg/day. For the same compound, the NOAEL (rat [9]; [31]) was 5 mg/kg/day, the LOAEL (rat [9]; group: maternal, systemic / in life observation / body weight / body weight gain) was 25 mg/kg/day and the NEL (rat [9]; [32]) was 5 mg/kg/day. For the same compound, the NOAEL (rat [9]; [32]) was 5 mg/kg/day, the LEL (rat [9]; group: maternal, systemic / in life observation / body weight / body weight gain + systemic / in life observation / food consumption / food consumption) was 25 mg/kg/day and the LOAEL (rat [10]; [33]) was > 50 mg/kg/day. The NOAEL (rat [10]; [33]) was ≥ 50 mg/kg/day, the LEL (rat [10]; [34]) was 5 mg/kg/day and the NEL (rat [10]; [34]) was < 5 mg/kg/day. It also gave an LOAEL (rat [11]; [35]) of 25 mg/kg/day, an NOAEL (rat [11]; [35]) of 5 mg/kg/day and an LEL (rat [11]; [36]) of 5 mg/kg/day. The NEL (rat [11]; [36]) was < 5 mg/kg/day, the LEL (dog [12]; [37]) was 1 mg/kg/day and the NEL (dog [12]; [37]) was < 1 mg/kg/day. For the same compound, the LOAEL (dog [12]; [38]) was > 10 mg/kg/day, the NOAEL (dog [12]; [38]) was ≥ 10 mg/kg/day and the LEL (rabbit [13]; systemic / in life observation / body weight / body weight gain + systemic / in life observation / food consumption / food consumption) was 15 mg/kg/day. For the same compound, the LOAEL (rabbit [13]; [39]) was > 30 mg/kg/day, the NEL (rabbit [13]; [39]) was 5 mg/kg/day and the NOAEL (rabbit [13]; [39]) was ≥ 30 mg/kg/day. The LEL (rat [14]; [40]) was 50 mg/kg/day, the LOAEL (rat [14]; [40]) was > 50 mg/kg/day and the NEL (rat [14]; [40]) was 25 mg/kg/day. The NOAEL (rat [14]; [40]) was ≥ 50 mg/kg/day, the LEL (rat [14]; [41]) was 25 mg/kg/day and the LOAEL (rat [14]; [41]) was 25 mg/kg/day. For the same compound, the NEL (rat [14]; [41]) was 5 mg/kg/day, the NOAEL (rat [14]; [41]) was 5 mg/kg/day and the LEL (rabbit [15]) was 30 mg/kg/day. For the same compound, the LOAEL (rabbit [15]) was 30 mg/kg/day, the NEL (rabbit [15]) was 10 mg/kg/day and the NOAEL (rabbit [15]) was 10 mg/kg/day.
Compound `CCOP(=S)(OCC)SCCSCC` [Disulfoton] has an LEL (dog [16]) of 0.094 mg/kg/day, an LOAEL (dog [16]) of 0.094 mg/kg/day and an NEL (dog [16]) of 0.013 mg/kg/day. It also gave an NOAEL (dog [16]) of 0.013 mg/kg/day, an LEL (dog [17]) of 0.05 mg/kg/day and an LOAEL (dog [17]) of 0.05 mg/kg/day. For the same compound, the NEL (dog [17]) was 0.025 mg/kg/day, the NOAEL (dog [17]) was 0.025 mg/kg/day and the LEL (rat [18]; [42]) was 0.04 mg/kg/day. For the same compound, the LOAEL (rat [18]; [42]) was 0.04 mg/kg/day, the NEL (rat [18]; [42]) was < 0.04 mg/kg/day and the NOAEL (rat [18]; [42]) was < 0.04 mg/kg/day. It also gave an LOAEL (rat [18]; group: systemic, systemic / pathology gross / harderian gland / degeneration) of 0.65 mg/kg/day, an LEL (rat [18]; [43]) of 0.65 mg/kg/day and an NEL (rat [18]; [43]) of 0.165 mg/kg/day. It also gave an NOAEL (rat [18]; [43]) of 0.165 mg/kg/day, an LEL (rat [19]; [44]) of 0.3 mg/kg/day and an LOAEL (rat [19]; [44]) of 0.3 mg/kg/day. The NEL (rat [19]; [44]) was 0.1 mg/kg/day, the NOAEL (rat [19]; [44]) was 0.1 mg/kg/day and the LEL (rat [19]; [45]) was 1 mg/kg/day. For the same compound, the LOAEL (rat [19]; [45]) was 1 mg/kg/day, the NEL (rat [19]; [45]) was 0.3 mg/kg/day and the NOAEL (rat [19]; [45]) was 0.3 mg/kg/day. It also gave an LEL (dog [20]) of 1.5 mg/kg/day, an LOAEL (dog [20]) of 1.5 mg/kg/day and an NEL (dog [20]) of 0.0375 mg/kg/day. For the same compound, the NOAEL (dog [20]) was 0.0375 mg/kg/day, the LEL (mouse [21]; [42]) was 2.4 mg/kg/day and the LOAEL (mouse [21]; [42]) was 2.4 mg/kg/day. For the same compound, the NEL (mouse [21]; [42]) was 0.6 mg/kg/day, the NOAEL (mouse [21]; [42]) was 0.6 mg/kg/day and the LEL (mouse [21]; [46]) was 0.15 mg/kg/day. For the same compound, the NEL (mouse [21]; [46]) was < 0.15 mg/kg/day, the LOAEL (mouse [21]; [47]) was > 2.4 mg/kg/day and the NOAEL (mouse [21]; [47]) was ≥ 2.4 mg/kg/day.
For `C1COCCO1` [1,4-Dioxane], the LEL (mouse [22]) was 380 mg/kg/day, the LOAEL (mouse [22]) was > 830 mg/kg/day and the NEL (mouse [22]) was < 380 mg/kg/day. The NOAEL (mouse [22]) was ≥ 830 mg/kg/day, the LOAEL (rat [23]; [48]) was 240 mg/kg/day and the NOAEL (rat [23]; [48]) was < 240 mg/kg/day. For the same compound, the LEL (rat [23]; [49]) was 240 mg/kg/day and the NEL (rat [23]; [49]) was < 240 mg/kg/day.
